US20120230991A1, “METHODS AND COMPOUNDS FOR ENHANCING ANTI-CANCER THERAPY” (priority 2008, published 2012)

Columns and labels:
G12 astrocytoma cells = experiment: MTT assay, chemosensitivity of G12 astrocytoma control and knockdown cells; assay type: cell-based
Method: (§1) G12 control (shControl) and knockdown cells (shMer1 and shMer4; shAxl8 and shAxl9) were plated in 96-well plates at concentrations determined to allow linear growth over 3 days: A) cells were treated with varying concentrations of temozolomide and relative cell number was assessed 48 h after treatment by colorimetric assessment/MTT assay. Error bars denote experiments performed in triplicate. A172 control (shControl) and knockdown cells (shMer1A and shMer1B; shAxl8 and shAxl9) were plated in 96-well plates at concentrations determined to allow linear growth over 3 days: B) cells were treated with varying concentrations of carboplatin and relative cell number was assessed 48 h after treatment by colorimetric assessment/MTT assay. Error bars represent three independent experiments performed in triplicate.
(§2) Table 4 provides the IC50 with 95% CI for G12 and A172 control and Mer and Axl knockdown cells, in response to chemotherapy. In Table 4, ‘NR’ indicates an IC50 was never reached. ‘IND’ represents that that CI was indeterminate. The IC50 for each knockdown line was compared to the control line, and an ‘*’ represents that the comparison is statistically different while an ‘NS’ represents that there was no statistically significant difference because either the CI was indeterminate (as with the G12 shAxl9 line treated with carboplatin) or it overlapped with the shControl CI.

[1] = system: 697 Human B-ALL Cell Lines; experiment: MTT assay, chemosensitivity of 697 cells (wild type, shControl, Mer knockdown), 48 hours; assay type: cell-based
Method: Inhibition of Mer expression results in increased chemosensitivity in 697 cells. […] IC50 values were determined by non-linear regression of data from at least three independent experiments performed in triplicate, as shown in Table 1.

A172 glioblastoma cells = experiment: MTT assay, chemosensitivity of A172 control and knockdown cells; assay type: cell-based
Method: as §1, §2

A549 cells = experiment: Induction of apoptosis / cell death in A549 knockdown cells treated with doxorubicin; assay type: cell-based, human
[2] = system: A549 Human NSCLC Cell Lines; experiment: Relative cell numbers of A549 cells (wild type, shControl, Axl/Mer knockdown) after 48 hours of drug; assay type: cell-based; conditions: for IC50: 48 hours, relative cell number
[3] = system: A549 Human NSCLC Cell Lines; experiment: BrdU incorporation ELISA, relative cell proliferation of A549 cells, 48 hours; assay type: cell-based; conditions: for sensitivity of A549 cells with inhibition of Mer expression: A549 Mer1-G8 knockdown, BrdU; for IC50: BrdU assay
Method: The relative cell proliferation was determined via a BrdU incorporation ELISA. IC50 values were determined by non-linear regression of data from at least three independent experiments performed in triplicate (see Table 3).

697 cells = experiment: Flow cytometry of apoptotic and dead cells (YO-PRO-1 / propidium iodide), 697 cells; assay type: cell-based, human; conditions: 697 shMer1A vs shControl, 48 hours
Method: Apoptotic and dead cells were identified by flow cytometric analysis of cells stained with YO-PRO®-1 and propidium iodide: A) representative flow cytometry profiles; B) mean values and standard errors derived from 3 independent experiments.
Cultures of shControl or shMer1A 697 cells were exposed to 6-MP, VP-16, or medium only for 48 hours: A) Apoptotic and dead cells were identified by flow cytometric analysis of cells stained with YO-PRO®-1 and propidium iodide: Representative flow cytometry profiles; B) the percentages of apoptotic and dead cells are indicated in lower-right and upper-right quadrants, respectively. Mean values and standard errors derived from 3 independent experiments. Results were tested for significance using two-way ANOVA and Bonferroni posttests to compare shControl and shMer1A cells at equivalent drug concentrations.

[4] = 697 shMer1A (Mer knockdown) cells
[5] = 697 shMer1B (Mer knockdown) cells

CC[C@]1(O)C[C@H]2CN(CCc3c([nH]c4ccccc34)[C@@](C(=O)OC)(c3cc4c(cc3OC)N(C=O)[C@H]3[C@@](O)(C(=O)OC)[C@H](OC(C)=O)[C@]5(CC)C=CCN6CC[C@]43[C@@H]65)C2)C1 [VCR, vincristine]
IC50 (G12 astrocytoma cells; G12 shAxl8, MTT): 0.31 nM | IC50 (G12 astrocytoma cells; G12 shAxl9, MTT): 0.2 nM | IC50 (G12 astrocytoma cells; G12 shControl, MTT): 1.64 nM | IC50 (G12 astrocytoma cells; G12 shMer1, MTT): 0.74 nM | IC50 (G12 astrocytoma cells; G12 shMer4, MTT): 0.22 nM | IC50 ([1]; 697 Wild Type cells): 1.04 nM | IC50 ([1]; 697 shControl cells): 1.02 nM | IC50 [1, 4]: 0.54 nM | IC50 [1, 5]: 0.46 nM | IC50 (A172 glioblastoma cells; Homo sapiens, A 172, A172 shAxl8, MTT): 0.68 nM | IC50 (A172 glioblastoma cells; Homo sapiens, A 172, A172 shAxl9, MTT): 2.92 nM | IC50 (A172 glioblastoma cells; Homo sapiens, A 172, A172 shControl, MTT): 2.54 nM | IC50 (A172 glioblastoma cells; Homo sapiens, A 172, A172 shMer1A, MTT): 1.25 nM | IC50 (A172 glioblastoma cells; Homo sapiens, A 172, A172 shMer1B, MTT): 0.54 nM

COc1cccc2c1C(=O)c1c(O)c3c(c(O)c1C2=O)C[C@@](O)(C(=O)CO)C[C@@H]3O[C@H]1C[C@H](N)[C@H](O)[C@H](C)O1 [DOXO, doxorubicin]
induction of apoptosis with inhibition of Axl (A549 cells; A549 Axl knockdown vs shControl): increased induction of apoptosis | level of cell death in Mer knockdown cells (A549 cells; A549 Mer knockdown cells, treated vs untreated): did not increase the level of cell death | sensitivity of the shAxl9-D3 Axl knockdown clone ([2]; A549 shAxl9-D3, 48 hours): more sensitive | IC50 ([2]; Homo sapiens, A549, 48 h, A549 Wild Type): 34.9 nM | IC50 ([2]; Homo sapiens, A549, 48 h, A549 shAxl8-G5 (Axl knockdown)): 2.1 nM | IC50 ([2]; Homo sapiens, A549, 48 h, A549 shAxl9-D3 (Axl knockdown)): 13 nM | IC50 ([2]; Homo sapiens, A549, 48 h, A549 shControl): 69.2 nM | IC50 ([2]; Homo sapiens, A549, 48 h, A549 shMer1-G8 (Mer knockdown)): 71.2 nM | sensitivity of A549 cells with inhibition of Mer expression ([3]; 48 hours): increased sensitivity | IC50 ([3]; Homo sapiens, A549, 48 h, A549 Wild Type, 48 hours): 43.1 nM | IC50 ([3]; Homo sapiens, A549, 48 h, A549 shAxl8-G5, 48 hours): 50 nM | IC50 ([3]; Homo sapiens, A549, 48 h, A549 shAxl9-D3, 48 hours): 33.2 nM | IC50 ([3]; Homo sapiens, A549, 48 h, A549 shControl, 48 hours): 51.1 nM | IC50 ([3]; Homo sapiens, A549, 48 h, A549 shMer1-G8, 48 hours): 20.4 nM | IC50 ([1]; 697 Wild Type cells): 16.7 nM | IC50 ([1]; 697 shControl cells): 11.1 nM | IC50 [1, 4]: 2.83 nM | IC50 [1, 5]: 3.26 nM

Sc1ncnc2nc[nH]c12 [6-MP, 6-mercaptopurine]
induction of apoptotic cell death with Mer knockdown (697 cells): increased induction of apoptotic cell death | IC50 ([1]; 697 Wild Type cells): > 64000 nM | IC50 ([1]; 697 shControl cells): > 64000 nM | IC50 [1, 4]: 2860 nM | IC50 [1, 5]: 3240 nM

N.N.O=C([O-])C1(C(=O)[O-])CCC1.[Pt+2] [Carbo, carboplatin]
IC50 (G12 astrocytoma cells; G12 shAxl8, 48 h, MTT): 280 nM | IC50 (G12 astrocytoma cells; G12 shAxl9, 48 h, MTT): 200 nM | IC50 (G12 astrocytoma cells; G12 shControl, 48 h, MTT): 47900 nM | IC50 (G12 astrocytoma cells; G12 shMer1, 48 h, MTT): 780 nM | IC50 (G12 astrocytoma cells; G12 shMer4, 48 h, MTT): 190 nM | IC50 ([2]; A549 Wild Type): > 160000 nM | IC50 ([2]; A549 shAxl8-G5 (Axl knockdown)): 9130 nM | IC50 ([2]; A549 shControl): > 160000 nM | IC50 ([2]; A549 shMer1-G8 (Mer knockdown)): 93400 nM | sensitivity of A549 cells with inhibition of Mer expression ([3]; 48 hours): increased sensitivity | IC50 ([3]; A549 Wild Type, 48 hours): 19800 nM | IC50 ([3]; A549 shAxl8-G5, 48 hours): 16900 nM | IC50 ([3]; A549 shAxl9-D3, 48 hours): 15200 nM | IC50 ([3]; A549 shControl, 48 hours): 15400 nM | IC50 ([3]; A549 shMer1-G8, 48 hours): 7200 nM | IC50 (A172 glioblastoma cells; A172 shAxl8, 48 h, MTT): 35 nM | IC50 (A172 glioblastoma cells; A172 shAxl9, 48 h, MTT): 75 nM | IC50 (A172 glioblastoma cells; A172 shMer1A, 48 h, MTT): 820 nM | IC50 (A172 glioblastoma cells; A172 shMer1B, 48 h, MTT): 210 nM
